According to patent publication US8846671B2, “Heterocyclic alkynyl benzene compounds and medical compositions and uses thereof” (Guangzhou Institute of Biomedicine and Health, Chinese …, priority 2010, dated 2014):
Several values for one entry are separate records, joined by “and”; a condition that tells them apart may be missing. Equal entries are not always repeated. Structures can show the parent of a compound that is named as a salt. Where two headings read alike, the source gives them in different places.

Assays:
[1] = system: K562 cells (human CML cell line expressing native Bcr-Abl); assay: Xenograft model of K562 in nude mice, oral dosing; settings: for anti-tumor effect compared with imatinib / effect on body weight: po, qd
Experimental: Tumor volume and body weight were monitored once every 2 days (In each group, the tumor volume and body weight at beginning of the day were recorded). Tumor volume was calculated as […]*a*b*b.L×W2/2 (a and b are the length and width of the tumor, respectively). […] The results were shown in Drawings as FIGS. 1, 2, 3, 4, 5, 6, 7 and 8.

[2] = Pharmacokinetics and bioavailability in rats; assay type: in vivo; settings: SD rats; for BA(% Oral bioavailability) / bioavailability: calculated according to AUC data, PO vs IV; for bioavailability: read-out: BA(% Oral bioavailability)
In short: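 Rats dosed, heparinized blood sampled at set times, plasma stored at -20 °C, acetonitrile-precipitated and analyzed by HPLC-MS. Compartmental and non-compartmental parameters derived; bioavailability from AUC.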

[3] = system: K562 (human chronic myelogenous leukemia cell line); assay: tumor cell proliferation, MTT or CCK8 assay, 72 h incubation; assay type: cell-based; settings: K562, 72 h, read-out: IC50 on tumor cell proliferation, K562
In short: (§1)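 Leukemia cell lines were exposed to compounds at 1×10^−10˜1×10^−5M for 72 h. Proliferation was read by MTT (570 nm) or CCK8 (450/650 nm) after a further 4 h incubation. IC50 values were calculated from inhibition of proliferation.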

[4] = system: MEG-01 (Human megakaryoblastic leukaemia cell line); assay: as above; assay type: cell-based; settings: MEG-01, 72 h, read-out: IC50 on tumor cell proliferation, MEG-01
In short: as §1

[5] = system: MOLT-4 (Human acute lymphoblastic leukemia cell line); assay: as above; assay type: cell-based; settings: MOLT-4, 72 h, read-out: IC50 on tumor cell proliferation, MOLT-4
In short: as §1

[6] = system: U937 Cell line; assay: as above; assay type: cell-based; settings: Homo sapiens, read-out: IC50 on tumor cell proliferation, U937
In short: as §1

[7] = system: K562R cells (imatinib-resistant cell line); assay: as above; assay type: cell-based; settings: Homo sapiens, K-562R, read-out: IC50 on tumor cell proliferation, K562R cells
[8] = target: BAF3-T315I cells (Ba/F3 cell line stably expressing BCR/ABL T315I) (Homo sapiens, UniProt P00519, T315I, cells depend on it); assay: as above; assay type: cell-based, mice
[9] = system: Ba/F3-Bcr/ABL-T315I cells; assay: Xenograft model of BAF3-T315I in SCID nude mice, oral dosing
Experimental: When the mean tumor volume reached 300-500 mm^3, mice were grouped and administered orally. […] Tumor volume and body weight were monitored once every 2 days (In each group, the tumor volume and body weight at beginning of the day were recorded). Tumor volume was calculated as π/6*a*b*b.L×W2/2 (a and b are the length and width of the tumor, respectively). […] The results were shown in Drawings as FIG. 9, 10, 11, 12, 13, 14, 15, 16.

[10] = both sexes, Sprague-Dawley, rat, plasma, iv, 10 mg/kg, IV 10 mg/kg
[11] = both sexes, Sprague-Dawley, rat, plasma, iv, 10 mg/kg, IV 10 mg/kg, read-out: Cmax
[12] = both sexes, Sprague-Dawley, rat, plasma, iv, 10 mg/kg, IV 10 mg/kg, read-out: Tmax
[13] = both sexes, Sprague-Dawley, rat, plasma, po, 25 mg/kg, PO 25 mg/kg
[14] = both sexes, Sprague-Dawley, rat, plasma, po, 25 mg/kg, PO 25 mg/kg, read-out: Cmax
[15] = both sexes, Sprague-Dawley, rat, plasma, po, 25 mg/kg, PO 25 mg/kg, read-out: Tmax
[16] = read-out: IC50 on tumor cell proliferation, BAF3-T315I cells; Ba/F3 expressing BCR/ABL T315I, 72 h, Table 1
[17] = 20 mg/kg po, q2d or qd (Example 51)
[18] = Ba/F3-Bcr/ABL-T315I xenograft, 25 mg/kg po, q2d or qd
[19] = both sexes, Sprague-Dawley, rat, plasma, iv, 5 mg/kg, IV 5 mg/kg
[20] = both sexes, Sprague-Dawley, rat, plasma, iv, 5 mg/kg, IV 5 mg/kg, read-out: Cmax
[21] = both sexes, Sprague-Dawley, rat, plasma, iv, 5 mg/kg, IV 5 mg/kg, read-out: Tmax
[22] = both sexes, Sprague-Dawley, rat, plasma, po
[23] = Ba/F3 expressing BCR/ABL T315I, 72 h, Table 1; read-out: IC50 on tumor cell proliferation, BAF3-T315I cells

For Cc1cn(-c2cc(NC(=O)c3ccc(C)c(C#Cc4cnc(NC5CC5)nc4)c3)cc(C(F)(F)F)c2)cn1 [D747 hydrochloride salt, 3-(2-(2-(cyclopropylamino)pyrimidin-5-yl)ethynyl)-4-methyl-N-(3-(4-methyl-1H-imidazol-1-yl)-5-(trifluoromethyl)phenyl)benzamide], the “effect on tumor growth” value ([1]; 25 mg/kg po qd) was “completely inhibit the tumor growth”, the “anti-tumor effect compared with imatinib” value [1] was “better anti-tumor effect than imatinib” and the “effect on body weight” value [1] was “did not cause the body weight loss”. For the same compound, the “BA(% Oral bioavailability)” value [2] was 35.3%, the AUC(0-inf) [2, 10] was 285000 ng·h/mL and the half-life [2, 10] was 71.8 h. The Cmax [2, 11] was 49800 ng/mL, the Tmax [2, 12] was 0.033 h and the AUC(0-inf) [2, 13] was 252000 ng·h/mL. The half-life [2, 13] was 48.7 h, the Cmax [2, 14] was 6200 ng/mL and the Tmax [2, 15] was 4.5 h.
For CNc1ncc(C#Cc2cc(C(=O)Nc3cc(-n4cnc(C)c4)cc(C(F)(F)F)c3)ccc2C)cn1 [D800, 4-methyl-N-(3-(4-methyl-1H-imidazol-1-yl)-5-(trifluoromethyl)phenyl)-3-(2-(2-(methylamino)pyrimidin-5-yl)ethynyl)benzamide], the IC50 [3] was 1.1 nM, the IC50 [4] was greater than 100 nM and the IC50 [5] was greater than 100 nM. The IC50 ([6]; U-937, 72 h) was greater than 100 nM, the IC50 [7] was 89.7 nM and the GI50 [8, 16] was 99.8 nM. The “pharmacokinetics parameters, overall judgement” value ([2]; corresponding pharmaceutical acceptable salt forms) was “adequate pharmacokinetics parameters”.
For Cc1cn(-c2cc(NC(=O)c3ccc(C)c(C#Cc4cnc5[nH]ncc5c4)c3)cc(C(F)(F)F)c2)cn1 [D767 mesylate salt, 3-(2-(1H-pyrazolo[3,4-b]pyridin-5-yl)ethynyl)-4-methyl-N-(3-(4-methyl-1H-imidazol-1-yl)-5-(trifluoromethyl)phenyl)benzamide], the “effect on tumor growth” value ([1]; 25 mg/kg po qd) was “completely inhibit the tumor growth”, the “effect on body weight” value [1] was “did not cause the body weight loss” and the Tmax ([2]; IV 5 mg/kg) was 0.033 h. For the same compound, the “AUC(0-∞)” value ([2]; IV 5 mg/kg, 5 mg/kg) was 59222.45 ng·h/mL, the Cmax ([2]; IV 5 mg/kg, 5 mg/kg) was 14093.75 ng/mL and the T1/2 ([2]; IV 5 mg/kg, 5 mg/kg) was 4.471 h. For the same compound, the “AUC(0-∞)” value ([2]; PO 25 mg/kg, 25 mg/kg) was 27850.615 ng·h/mL, the Cmax ([2]; PO 25 mg/kg, 25 mg/kg) was 2322.5 ng/mL and the T1/2 ([2]; PO 25 mg/kg, 25 mg/kg) was 5.949 h. The Tmax ([2]; PO 25 mg/kg, 25 mg/kg) was 2.75 h and the “BA(% Oral bioavailability)” value [2] was 9.4%.
For Cc1cn(-c2cc(NC(=O)c3ccc(C)c(C#Cc4cnc5[nH]ncc5c4)c3)cc(C(C)(C)C)c2)cn1 [D968 mesylate, 3-(2-(1H-pyrazolo[3,4-b]pyridin-5-yl)ethynyl)-N-(3-tert-butyl-5-(4-methyl-1H-imidazol-1-yl)phenyl)-4-methylbenzamide mesylate], the “effect on tumor growth” value [9, 17] was “inhibit the tumor growth”.
For Cc1ccc(C(=O)Nc2ccc(CN3CCN(C)CC3)c(C(F)(F)F)c2)cc1C#Cc1cnc2[nH]ncc2c1 [D824 dimesylate salt, 3-(2-(1H-pyrazolo[3,4-b]pyridin-5-yl)ethynyl)-4-methyl-N-(4-((4-methylpiperazin-1-yl)methyl)-3-(trifluoromethyl)phenyl)benzamide dimesylate], the “effect on tumor growth” value ([1]; 5 mg/kg po qd) was “completely inhibit the tumor growth”, the “effect on body weight” value [1] was “did not cause the body weight loss” and the “effect on body weight” value [9, 18] was “help the body weight gain”. The “effect on tumor growth” value [9, 18] was “almost completely suppressed the tumor growth”, the Tmax ([2]; PO 25 mg/kg, dimesylate, 25 mg/kg) was 4.25 h and the AUC(0-inf) [2, 19] was 4300 ng·h/mL. It also gave a half-life [2, 19] of 6.1 h, a Cmax [2, 20] of 2240 ng/mL and a Tmax [2, 21] of 0.033 h. It also gave an AUC(0-inf) [2, 13] of 12600 ng·h/mL, a half-life [2, 13] of 8.72 h and a Cmax [2, 14] of 775 ng/mL. The bioavailability [2, 22] was 58.7%.
For CNc1ncc(C#Cc2cc(C(=O)Nc3cc(-n4cnc(C)c4)cc(C(F)(F)F)c3)ccc2C)cn1 [D800 mesylate, 4-methyl-N-(3-(4-methyl-1H-imidazol-1-yl)-5-(trifluoromethyl)phenyl)-3-(2-(2-(methylamino)pyrimidin-5-yl)ethynyl)benzamide], the “effect on tumor growth” value ([1]; 25 mg/kg po qd) was “completely inhibit the tumor growth” and the “effect on body weight” value [1] was “did not cause the body weight loss”.
With Cc1cn(-c2cc(NC(=O)c3ccc(C)c(C#Cc4cnc5ccnn5c4)c3)cc(C(F)(F)F)c2)cn1 [D822 mesylate salt, 4-methyl-N-(3-(4-methyl-1H-imidazol-1-yl)-5-(trifluoromethyl)phenyl)-3-(2-(pyrazolo[1,5-a]pyrimidin-6-yl)ethynyl)benzamide] the “effect on tumor growth” value ([1]; 25 mg/kg po qd) was “completely inhibit the tumor growth”, the “anti-tumor effect compared with imatinib” value [1] was “better anti-tumor effect than imatinib” and the “effect on body weight” value [1] was “did not cause the body weight loss”. It also gave an AUC(0-inf) [2, 10] of 13800 ng·h/mL, a half-life [2, 10] of 3.15 h and a Cmax [2, 11] of 23100 ng/mL. The Tmax [2, 12] was 0.033 h, the AUC(0-inf) [2, 13] was 10700 ng·h/mL and the half-life [2, 13] was 8.04 h. The Cmax [2, 14] was 814 ng/mL, the Tmax [2, 15] was 3 h and the bioavailability [2, 22] was 31.2%.
Cc1cn(-c2cc(NC(=O)c3ccc(C)c(C#Cc4cnc5nccn5c4)c3)cc(C(F)(F)F)c2)cn1 [D799, 3-(2-(imidazo[1,2-a]pyrimidin-6-yl)ethynyl)-4-methyl-N-(3-(4-methyl-1H-imidazol-1-yl)-5-(trifluoromethyl)phenyl)benzamide] showed an IC50 ([3]; MTT or CCK8, nM) of 36.2 nM, an IC50 ([4]; MTT or CCK8, nM) greater than 100 nM and an IC50 ([5]; MTT or CCK8, nM) greater than 100 nM. It also gave an IC50 ([6]; U-937, 72 h, MTT or CCK8, nM) greater than 100 nM, an IC50 ([7]; imatinib-resistant K562R) of 612 nM and a GI50 [8, 23] greater than 10000 nM.
For Cc1ccc(C(=O)Nc2ccc(CN3CCN(C)CC3)c(C(F)(F)F)c2)cc1C#Cc1cnc2ccnn2c1 [D856 dimesylate salt, 4-methyl-N-(4-((4-methylpiperazin-1-ylmethyl)-3-(trifluoromethyl)phenyl)-3-(2-(pyrazolo[1,5-a]pyrimidin-6-yl)ethynyl)benzamide dimesylate], the “effect on tumor growth” value [9, 17] was “inhibit the tumor growth”, the AUC(0-inf) [2, 19] was 8170 ng·h/mL and the half-life [2, 19] was 20 h. It also gave a Cmax [2, 20] of 934 ng/mL, a Tmax [2, 21] of 0.033 h and an AUC(0-inf) [2, 13] of 31800 ng·h/mL. The half-life [2, 13] was 22.2 h, the Cmax [2, 14] was 900 ng/mL and the Tmax [2, 15] was 6.5 h. The bioavailability [2, 22] was 78%.
Cc1cn(-c2cc(NC(=O)c3ccc(C)c(C#Cc4cnc(Nc5ccccc5)nc4)c3)cc(C(F)(F)F)c2)cn1 [D809, 4-methyl-N-(3-(4-methyl-1H-imidazol-1-yl)-5-(trifluoromethyl)phenyl)-3-(2-(2-(phenylamino)pyrimidin-5-yl)ethynyl)benzamide] gave an IC50 [3] greater than 100 nM, an IC50 [4] of 115 nM and an IC50 [5] greater than 100 nM. For the same compound, the IC50 ([6]; U-937, 72 h) was greater than 100 nM, the IC50 [7] was 177 nM and the GI50 [8, 16] was 102 nM and 71.1 nM.
With CCN(CC)c1ncc(C#Cc2cc(C(=O)Nc3cc(-n4cnc(C)c4)cc(C(F)(F)F)c3)ccc2C)cn1 [D807, 3-(2-(2-(diethylamino)pyrimidin-5-yl)ethynyl)-4-methyl-N-(3-(4-methyl-1H-imidazol-1-yl)-5-(trifluoromethyl)phenyl)benzamide] the IC50 ([3]; MTT or CCK8, nM) was 128 nM, the IC50 ([4]; MTT or CCK8, nM) was greater than 100 nM and the IC50 ([5]; MTT or CCK8, nM) was greater than 100 nM. It also gave an IC50 ([6]; U-937, 72 h, MTT or CCK8, nM) of 126 nM, an IC50 ([7]; imatinib-resistant K562R) of 14100 nM and a GI50 [8, 23] of 13400 nM.
